Measurements from US20090172831A1, “Methods for the production of plants resistant to HPPD herbicides” (Syngenta Limited, priority 2000, published 2009).
Several values for one entry are separate records, joined by “and”; a condition that tells them apart may be missing. Identical values can stand only once. Like-named read-outs stand apart in the source and are kept apart here.

Columns and labels:
Wheat HPPD = Wheat HPPD (Triticum aestivum, UniProt A0A3B6NLC6); test: Dissociation of enzyme/inhibitor complexes by exchange with 14C-labelled inhibitor (koff; Kd = koff/kon); type: binding
Sequence of Wheat HPPD (A0A3B6NLC6 entry or part of it): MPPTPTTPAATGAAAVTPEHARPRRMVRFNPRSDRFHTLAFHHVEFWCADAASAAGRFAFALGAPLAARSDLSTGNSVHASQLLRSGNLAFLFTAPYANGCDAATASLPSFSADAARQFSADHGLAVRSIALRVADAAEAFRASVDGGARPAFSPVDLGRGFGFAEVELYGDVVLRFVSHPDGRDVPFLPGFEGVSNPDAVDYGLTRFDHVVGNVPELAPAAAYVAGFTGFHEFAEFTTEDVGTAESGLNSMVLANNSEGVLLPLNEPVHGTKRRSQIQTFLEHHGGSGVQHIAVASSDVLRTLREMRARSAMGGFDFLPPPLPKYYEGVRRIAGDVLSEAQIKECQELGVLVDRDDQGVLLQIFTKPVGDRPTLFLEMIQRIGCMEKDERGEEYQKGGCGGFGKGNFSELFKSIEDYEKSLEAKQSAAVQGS
Excerpt: (§1) Herbicidal inhibitors of HPPD are found here to have generally low values of koff (in the range less than 0.0003 s^−1, often less than 0.000001 s^−1). It will be appreciated that many suitable methods known in the art for determining such low koff values are suitable for working the current invention. These include measuring rates of exchange of radio or otherwise labelled inhibitors either with or away from the enzyme inhibitor complex. For example enzyme inhibitor complexes can readily be prepared by incubating HPPD preparations with labelled or unlabelled inhibitor and then, after suitable periods, optionally rapidly separating the thus formed enzyme inhibitor complex from excess inhibitor by any suitable method such as ultrafiltration, binding to filters or exchange down a gel filtration column. Exchange reactions with the, thus prepared enzyme inhibitor complex is then initiated by addition of, as appropriate, excess labelled or unlabelled inhibitor. HPPD preparations suitable for use in the methods of the current invention are relatively unpurified, buffer-exchanged, supernatant fractions of spun crude lysates of E. coli strains engineered to express the HPPD enzyme of interest at a level of, typically, about 0.25-10% of the total soluble protein. Many methods such as radiometric, fluorimetric, NMR, fluorescence depolarisation, EPR, Mossbauer, UV/VIS spectrophotometry etc. or phonon resonance can, in principle, be used to monitor the enzyme/ligand exchange reactions and, particularly in this case where the enzyme contains an iron atom at the ligand binding site. Optionally, the monitoring method may be continuous (as, for example, with scintillation proximity/bead-based methods) or, discontinuous, based upon collection of data at various timepoints wherein samples are removed and the bound and unbound label components rapidly separated and quantitated.
(§2) Values of koff can suitably be calculated by computer fitting based upon is numerical integration of the exchange data along with information on the active-site concentration of HPPD and upon kon values obtained as described below. […] In any event, koff values are always here calculated from the rate of the major slow exchange reaction. It will be appreciated that within the scope of the current invention many methods of making the desired kinetic comparisons are possible without explicit or rigorous determination of off rates but, based upon the same underlying principle, will achieve the same selection result.
The dissociation rates (off rates) of inhibitors selected from Formula 1 and/or 2 and/or 3 and/or 4 from the complexes that they form with test and control HPPD enzymes are suitably measured in a number of ways. Thus, for example, the rates of dissociation of mesotrione, a compound selected from Formula 1 and of the diketonitrile of isoxaflutole, a compound selected from Formula 3 from their respective complexes with, test, wheat HPPD and with, control, Arabidopsis HPPD are compared. The method and results from a typical test are as follows.
^14C mesotrione is of specific activity 1.12 GBq/mmol. This is ˜95% pure radiochemically by TLC and based upon the proportion of material tight-binding to HPPD. Arabidopsis and, (test), wheat HPPD are each diluted to a concentration of ˜0.45 and 0.54 μM, respectively into 1.6 ml of 50 mM Bis-Tris propane buffer at pH 7.0 containing 25% glycerol, 25 mM sodium ascorbate and 3 mg/l of bovine catalase (Sigma C3155˜50,000 units/mg) containing […] ^14C mesotrione and left to react at 25 C for 2.5-3 h. Following this initial binding reaction, exchange reactions are initiated by addition of cold mesotrione to a final concentration of 60 μM and 200 μl aliquots removed at various times to rapid chromatography down a NAP5 gel filtration column equilibrated in 50 mM BTP at pH 7 containing 0.1 M KCl, separation into fractions containing protein-bound or free radiolabel and liquid scintillation counting. […]

P. fluorescens HPPD = P. fluorescens HPPD (Pseudomonas fluorescens, UniProt A0ACG8AE61); test: as above; type: binding
Sequence of P. fluorescens HPPD (A0ACG8AE61 entry or part of it): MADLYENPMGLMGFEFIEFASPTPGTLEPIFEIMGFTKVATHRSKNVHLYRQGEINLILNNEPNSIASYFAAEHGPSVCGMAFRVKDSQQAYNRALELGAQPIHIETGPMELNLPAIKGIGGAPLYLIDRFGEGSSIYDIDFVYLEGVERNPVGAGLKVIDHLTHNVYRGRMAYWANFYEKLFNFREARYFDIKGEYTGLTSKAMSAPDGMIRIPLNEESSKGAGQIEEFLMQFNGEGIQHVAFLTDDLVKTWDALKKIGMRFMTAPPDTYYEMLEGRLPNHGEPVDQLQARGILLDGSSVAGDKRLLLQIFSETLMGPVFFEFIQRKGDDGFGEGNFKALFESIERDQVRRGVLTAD
Excerpt: as §1
as §2, with “result. […]” for “result.”
Not all test inhibitors are readily available in a radiolabelled form. A more general method of measuring off rates is to first form the complex with unlabelled test inhibitor, to rapidly exchange the complex free of excess unlabelled inhibitor and to then start the exchange reaction by addition of an excess of a standard labelled inhibitor, the kinetic properties of which are already known. The reaction is then monitored and the relative proportions of bound and unbound label determined at various times. […] The latter is the method of choice when the rate of exchange is fast (t½<3 h).
In, variants of the above methods, off rates are measured either in the presence or absence of ˜25% v/v glycerol. In the presence of glycerol values obtained are generally ˜1.5-3× slower than in its absence although sometimes the change is outside this range or, even, in the other direction. Further examples of data obtained are depicted in the following Table 3.
Crude Extracts of recombinant E. coli strains expressing, in the one case, a control HPPD (from Arabidopsis) and, in the other, one or more test HPPD sequences are prepared as described in the preceding example. The titre of active sites and enzyme activity are also defined and measured as described in the preceding examples. […]

[1] = Kd, without glycerol, Kd = koff/kon
[2] = dissociation constant (Kd), in water at pH 7.0 and at 25 C
[3] = Kd, value obtained + glycerol (in parentheses)

SMILES	ratio Kd2/Kd4, structure II to structure VII (Wheat HPPD)	ratio koff2/koff4, structure II to structure VII (Wheat HPPD)	Kd (Wheat HPPD; [1]) [nM]	Kd (Wheat HPPD; [2]) [nM]	koff (Wheat HPPD; in water at pH 7.0 and at 25 C, values of Table 3 restated) [s⁻¹]	koff (Wheat HPPD; pH 7, in water at pH 7.0 and at 25 C, values of Table 3 restated) [s⁻¹]	koff (Wheat HPPD; − glycerol)	Kd (P. fluorescens HPPD; without glycerol, Kd = koff/kon, read-out: Kd) [nM]	koff (P. fluorescens HPPD; − glycerol) [s⁻¹]	Kd (Wheat HPPD; [3]) [nM]	Kd (P. fluorescens HPPD; [3]) [nM]	Kd (P. fluorescens HPPD; [1]) [nM]
Cc1nc(C(F)(F)F)ccc1C(=O)C1C(=O)C2CCC(C2)C1=O (centres unmarked) [Structure II]	38	30 and 42	6.73	6.5 to 7.5	0.00035	0.00025	0.00025 s⁻¹ and 0.00035 s⁻¹	2.17	5e-05			
CS(=O)(=O)c1ccc(C(=O)C2C(=O)CCCC2=O)c([N+](=O)[O-])c1 [Structure I, 2-(Nitro-4-methanesulphonylbenzoyl)-cyclohexane-1,3-dione, reference compound]			7.41	6.5 to 7.5						6.33	0.2	0.114
